Test results as given in PubChem BioAssay (NCI).
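Assay format: 96-well plates, 48-hour exposure. TGI: total growth inhibition.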

Experiments:
Experiment in all cases: NCI anticancer screen, dose series, 48 h
SNB-19 CNS = tested on: SNB-19 CNS
SW-620 colon = tested on: SW-620 colon
DU-145 prostate = tested on: DU-145 prostate
SR leukemia = tested on: SR leukemia
SK-MEL-2 melanoma = tested on: SK-MEL-2 melanoma
OVCAR-5 ovarian = tested on: OVCAR-5 ovarian
HL-60(TB) leukemia = tested on: HL-60(TB) leukemia
M14 melanoma = tested on: M14 melanoma
UACC-62 melanoma = tested on: UACC-62 melanoma
OVCAR-4 ovarian = tested on: OVCAR-4 ovarian
NCI-H226 lung = tested on: NCI-H226 lung
MDA-MB-231 breast = tested on: MDA-MB-231 breast
SK-MEL-5 melanoma = tested on: SK-MEL-5 melanoma
RPMI-8226 leukemia = tested on: RPMI-8226 leukemia
NCI-H522 lung = tested on: NCI-H522 lung
K-562 leukemia = tested on: K-562 leukemia
CCRF-CEM leukemia = tested on: CCRF-CEM leukemia
MDA-MB-435 = tested on: MDA-MB-435
HS 578T breast = tested on: HS 578T breast
MCF7 breast = tested on: MCF7 breast
NCI-H460 lung = tested on: NCI-H460 lung
U251 CNS = tested on: U251 CNS
SF-539 CNS = tested on: SF-539 CNS
A498 renal = tested on: A498 renal
PC-3 prostate = tested on: PC-3 prostate
MOLT-4 leukemia = tested on: MOLT-4 leukemia
TK-10 renal = tested on: TK-10 renal
COLO 205 colon = tested on: COLO 205 colon
MDA-N = tested on: MDA-N
SN12C renal = tested on: SN12C renal
SK-MEL-28 melanoma = tested on: SK-MEL-28 melanoma
SK-OV-3 ovarian = tested on: SK-OV-3 ovarian
ACHN renal = tested on: ACHN renal
EKVX NSCLC = tested on: EKVX NSCLC
MALME-3M melanoma = tested on: MALME-3M melanoma
HT29 colon = tested on: HT29 colon
BT-549 breast = tested on: BT-549 breast
RXF 393 renal = tested on: RXF 393 renal
OVCAR-3 ovarian = tested on: OVCAR-3 ovarian
OVCAR-8 ovarian = tested on: OVCAR-8 ovarian
HCT-116 colon = tested on: HCT-116 colon
NCI/ADR-RES ovarian = tested on: NCI/ADR-RES ovarian
IGROV1 ovarian = tested on: IGROV1 ovarian
HCT-15 colon = tested on: HCT-15 colon
HCC-2998 colon = tested on: HCC-2998 colon
LOX IMVI melanoma = tested on: LOX IMVI melanoma
SNB-75 CNS = tested on: SNB-75 CNS
SF-295 CNS = tested on: SF-295 CNS
SF-268 CNS = tested on: SF-268 CNS
T-47D breast = tested on: T-47D breast
A549 NSCLC = tested on: A549 NSCLC
HOP-62 NSCLC = tested on: HOP-62 NSCLC
NCI-H23 lung = tested on: NCI-H23 lung
786-0 renal = tested on: 786-0 renal
UO-31 renal = tested on: UO-31 renal
KM12 colon = tested on: KM12 colon
HOP-92 NSCLC = tested on: HOP-92 NSCLC
UACC-257 melanoma = tested on: UACC-257 melanoma
CAKI-1 renal = tested on: CAKI-1 renal

Measured: TGI

CNc1ccc(OC)cc1S(=O)(=O)c1ccccc1[N+](=O)[O-]
not listed: KM12 colon | HOP-92 NSCLC | UACC-257 melanoma | CAKI-1 renal
> 100 µM: all other assays above

COC(=O)C(C)(NC(=O)C(CC(=O)OC(C)(C)C)NC(=O)OC(C)(C)C)c1ccccc1 (configuration not stated)
not listed: SK-MEL-2 melanoma | OVCAR-4 ovarian
> 100 µM: all other assays above
